Tests used:
[1] = open container at 5° C./ambient RH, 30° C./65% RH, 40° C./75% RH, and 60° C./ambient RH; cited from earlier work
[2] = Solubility / solubilization assessment of doravirine and islatravir; assay type: physicochemical; conditions: islatravir: in water and dissolution media
From the text: Details are provided in Example 5.
The manufacturing process includes standard unit operations and equipment for tablet production.

For Cn1c(Cn2ccc(C(F)(F)F)c(Oc3cc(Cl)cc(C#N)c3)c2=O)n[nH]c1=O [Neat amorphous doravirine, 3-chloro-5-({1-[(4-methyl-5-oxo-4,5-dihydro-1H-1,2,4-triazol-3-yl)methyl]-2-oxo-4-(trifluoromethyl)-1,2-dihydropyridin-3-yl}oxy)benzonitrile], the “Time to crystallization on storage” value [1] is listed as ≤ 2 weeks.
With C#C[C@@]1(CO)O[C@H](n2cnc3c(N)nc(F)nc32)C[C@H]1O [islatravir, (2S,3R,5S)-5-(6-amino-2-fluoro-9H-purin-9-yl)-2-ethynyl-2-(hydroxymethyl)tetrahydrofuran-3-ol] the “Solubility” value [2] was “high solubility”.
